Source: patent publication US12351574B2, “Selective ligands for modulation of GIRK channels” (Northeastern University, priority 2018, dated 2025)

Columns and labels:
[1] = molecular target: T1, GIRK heteromers (UniProt P48542+P48549); assay: concentration-response after PIP2 hydrolysis by light-sensitive phosphatase, whole-cell patch-clamp in mammalian cells; format: cell-based; conditions: stimulation of light-sensitive phosphatase, FIGS. 20A-20C
T1 construct: expressed in transfected cells; HEK293-T in the methods
T1 sequence (P48549 1-501): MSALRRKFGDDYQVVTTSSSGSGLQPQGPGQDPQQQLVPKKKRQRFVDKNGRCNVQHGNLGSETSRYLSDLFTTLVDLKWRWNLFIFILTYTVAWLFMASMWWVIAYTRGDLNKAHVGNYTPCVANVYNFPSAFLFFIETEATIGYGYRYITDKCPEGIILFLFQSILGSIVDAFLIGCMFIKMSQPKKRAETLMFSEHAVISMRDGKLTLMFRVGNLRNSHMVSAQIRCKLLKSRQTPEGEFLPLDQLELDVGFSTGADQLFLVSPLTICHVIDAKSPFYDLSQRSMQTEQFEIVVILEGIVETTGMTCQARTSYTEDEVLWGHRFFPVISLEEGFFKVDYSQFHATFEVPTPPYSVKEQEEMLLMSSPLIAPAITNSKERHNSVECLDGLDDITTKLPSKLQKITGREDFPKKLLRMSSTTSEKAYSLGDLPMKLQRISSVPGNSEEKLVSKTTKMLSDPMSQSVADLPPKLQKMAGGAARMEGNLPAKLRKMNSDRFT
T1 sequence (P48542 1-425): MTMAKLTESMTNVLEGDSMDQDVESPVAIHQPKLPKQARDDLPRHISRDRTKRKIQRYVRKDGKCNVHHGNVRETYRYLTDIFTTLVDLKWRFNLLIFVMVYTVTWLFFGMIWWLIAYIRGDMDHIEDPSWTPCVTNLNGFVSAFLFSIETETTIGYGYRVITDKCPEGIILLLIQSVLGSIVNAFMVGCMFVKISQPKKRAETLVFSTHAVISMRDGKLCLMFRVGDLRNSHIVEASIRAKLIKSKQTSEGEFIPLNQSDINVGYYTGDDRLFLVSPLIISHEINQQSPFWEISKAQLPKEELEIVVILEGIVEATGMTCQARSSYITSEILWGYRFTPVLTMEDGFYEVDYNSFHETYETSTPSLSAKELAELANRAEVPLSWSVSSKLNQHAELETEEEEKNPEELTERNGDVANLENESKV
Excerpt: The MD simulations indicated a PIP2-dependent activation effect by ML297 and the GAT compounds in GIRK heteromers leading to channel gating. To experimentally test the role of PIP2 in channel activation by ML297 and the GAT compounds, the inventors proceeded to first manipulate PIP2 levels by inducing a light-sensitive phosphatase in whole-cell patch-clamp experiments in mammalian cells and to examine the effects of the activating compounds (FIGS. 20A-20C).
(§1) Light-activated phosphatase system: The inventors used a light-activated phosphatase system to dephosphorylate PIP2 that is comprised of two fusion proteins: CRY2-5-ptaseOCRL contains the photolyase domain of cryptochrome 2 (CRY2) and the inositol 5-phosphatase domain of the […] oculocerebrorenal syndrome protein (OCRL), while CIBN-CAAX contains the CRY2 binding domain (CIBN) and a C-terminal CAAX box for plasma membrane targeting. When CRY2-5-ptaseOCRL and CIBN-CAAX fusion proteins are co-expressed and exposed to blue light between 458-488 nm, the 5-ptase is localized to the plasma membrane, where it dephosphorylates PIP2. […] The 5-ptaseOCRL system was activated using a 460 nm LED (Luminus) that was focused on the cells through the objective lens of an inverted microscope (Nikon).
Patch-clamp recording: Whole-cell currents were recorded with an Axopatch 200B amplifier (Molecular Devices) controlled via a USB-interface (National Instruments) using WinWCP software (University of Strathclyde). Currents were acquired through a lowpass Bessel filter at 2 kHz and were digitized at 10 kHz. […] Cells for study were selected based on GFP expression using an epifluorescence microscope (Nikon). […] The barium-sensitive component of the current, observed when cells were perfused with the high-K^+ buffer, was analyzed and was determined by perfusing 5 mM BaCl2 in the high-K^+ buffer at the end of each experiment. […]

[2] = molecular target: T2, GIRK1/2 (UniProt P48542+P48549); assay: current inhibition by light-activated phosphatase 5-ptaseOCRL, HEK293 whole-cell patch-clamp, GIRK1/2; format: cell-based, human GIRK1, mouse GIRK2; parameters: expressed in transfected cells; conditions: for percentage of GIRK1/2 channel current remaining following activation of 5-ptaseOCRL (in words) / τ of current-inhibition, GIRK1/2 (in words): 10 μM compound versus control; for protection from current inhibition, rank order, GIRK1/2: current levels and kinetics of inhibition
T2 sequence (P48549 1-501): T1 sequence (P48549 1-501)
T2 sequence (P48542 1-425): T1 sequence (P48542 1-425)
Excerpt: The inventors next pursued whole-cell patch-clamp experiments to further validate the model predictions and excised-patch results. Expression of a light-activated phosphatase that upon exposure to blue light dephosphorylates PI(4,5)P2 to PI(4)P and inhibits GIRK currents allowed recording of macroscopic currents in the absence and presence of ML297 and the two brain-specific GAT compounds. […] Since GAT1508 and ML297 only bind GIRK1 or GIRK1-like (i.e. “FD-containing”, “FD”=mimics the contribution of GIRK1 residues F137 and D173, see Example 2) subunits resulting in corresponding changes in channel-PIP2 interactions and channel activity, the inventors next sought to compare channel subunit specific interactions with PIP2 for subunits bound to the ligand (P-FD) versus those not bound to the ligand (P-WT) (FIGS. 19, 38A).
Culture of HEK293 cells: HEK293-T cells were obtained from ATCC and maintained in DMEM medium supplemented with 10% FBS and 1% penicillin and streptomycin (Hyclone). For patch-clamp studies, cells were seeded on glass coverslips and transfected 24-hours later using a polyethylenimine solution (1 mg/ml) at a ratio of 8 μl per μg of DNA. To study GIRK-currents, cells were transfected with 0.75 μg each of plasmids encoding GIRK1, GIRK2 or GIRK4 as indicated. In the optogenetic experiments, cells were co-transfected with plasmids encoding 5-ptaseOCRL and CIBN-CAAX, as previously described. 5-ptaseOCRL and CIBN-CAAX were a kind gift from the DeCamilli lab, Yale CT. All experiments were performed at room temperature 24-36 hours post transfection.
as §1
Patch-clamp recording: Whole-cell currents were recorded with an Axopatch 200B amplifier (Molecular Devices) controlled via a USB-interface (National Instruments) using WinWCP software (University of Strathclyde). Currents were acquired through a lowpass Bessel filter at 2 kHz and were digitized at 10 kHz. […] Cells for study were selected based on GFP expression using an epifluorescence microscope (Nikon). […] Cells were perfused via a multi-channel gravity-driven perfusion manifold with a physiological buffer comprising: 135 mM NaCl, 5 mM KCl, 1.2 mM MgCl2, 1.5 mM CaCl2, 8 mM Glucose, and 10 mM HEPES; pH 7.4, then quickly transitioning to a high-K^+ buffer comprising 5 mM NaCl, 135 mM KCl, 1.2 mM MgCl2, 1.5 mM CaCl2, 8 mM Glucose, and 10 mM HEPES; pH 7.4. The barium-sensitive component of the current, observed when cells were perfused with the high-K^+ buffer, was analyzed and was determined by perfusing 5 mM BaCl2 in the high-K^+ buffer at the end of each experiment. The 5-ptaseOCRL system was activated using a 460 nm LED (Luminus) that was focused on the cells through the objective lens of an inverted microscope (Nikon). […] ML297, GAT1508 or GAT1521 were maintained as 10 mM stock solutions in DMSO and were diluted to concentrations between 10 μM and 1 nM using the high K^+ buffer for patch-clamp experiments.

decrease in potency following hydrolysis of PIP2 [1] [fold]	percentage of GIRK1/2 channel current remaining following activation of 5-ptaseOCRL (in words) [2]	τ of current-inhibition, GIRK1/2 (in words) [2]	protection from current inhibition, rank order, GIRK1/2 [2]	SMILES
~2	increase	increase	GAT1508>GAT1521>ML297>Control	Cc1cc(NC(=O)Nc2ccc(Br)s2)n(-c2ccccc2)n1 [GAT1508, 1-(5-bromothiophen-2-yl)-3-(3-methyl-1-phenyl-1H-pyrazol-5-yl)urea]
~3	increase	increase	GAT1508>GAT1521>ML297>Control	Cc1cc(NC(=O)Nc2ccc(F)c(F)c2)n(-c2ccccc2)n1 [ML297, reference compound]
~3.7	increase	increase	GAT1508>GAT1521>ML297>Control	Cc1cc(NC(=O)Nc2ccc(C)s2)n(-c2ccccc2)n1 [GAT1521, 1-(3-methyl-1-phenyl-1H-pyrazol-5-yl)-3-(5-methylthiophen-2-yl)urea]
